The assay addresses T1, human H4 receptor (Homo sapiens, UniProt Q9H3N8).
T1 construct: expressed in transfected cells
Nature of the assay: [3H]Histamine binding on membranes of CHO cells stably expressing human H4 receptor. In short, it runs like this:
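First, thawed CHO membranes carrying human H4 were diluted to 20 μg protein per well in pH 7.4 Tris/EDTA buffer. Next, incubation was ended by rapid filtration through PEI-treated GF/B filters followed by cold rinses. Finally, retained radioactivity was counted; 10 μM JNJ 7777120 marked nonspecific binding.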

T1 sequence (Q9H3N8 whole entry): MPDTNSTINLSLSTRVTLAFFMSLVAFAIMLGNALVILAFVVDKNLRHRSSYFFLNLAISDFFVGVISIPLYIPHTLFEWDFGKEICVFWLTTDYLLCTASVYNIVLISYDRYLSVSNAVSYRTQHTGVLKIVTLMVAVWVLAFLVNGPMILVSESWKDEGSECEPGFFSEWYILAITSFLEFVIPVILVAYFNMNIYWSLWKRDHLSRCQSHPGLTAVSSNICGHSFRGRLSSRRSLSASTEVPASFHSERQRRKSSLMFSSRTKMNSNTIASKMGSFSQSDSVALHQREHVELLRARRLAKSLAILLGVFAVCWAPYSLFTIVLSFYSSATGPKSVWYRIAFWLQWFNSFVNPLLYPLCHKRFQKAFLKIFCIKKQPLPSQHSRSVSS

`CN1CCC(NC(c2cccc(Br)c2)c2nc3ccccc3[nH]2)CC1` (stereo not shown) [Example 64, [(1H-benzimidazol-2-yl)(3-bromophenyl)methyl](1-methylpiperidin-4-yl)amine] displayed a Ki or IC50 activity class of less than 1 µM.
In the case of `CN1CCC(OC(c2cccc(N3CCC(CO)C3)c2)c2nc3ccccc3s2)CC1` (stereo not shown) [Example 404, (1-{3-[benzothiazol-2-yl(1-methylpiperidin-4-yloxy)methyl]phenyl}pyrrolidin-3-yl)methanol], the Ki or IC50 activity class is less than 0.3 µM.
Take `CN1CCC(OC(c2cccc(N3CCC(F)(F)C3)c2)c2nc3ccccc3[nH]2)CC1` (stereo not shown) [Example 491]: the Ki or IC50 activity class is less than 1 µM.
On to `CN1CCC(OC(c2cccc(Br)c2)c2nc3cc(F)ccc3[nH]2)CC1` (single isomer, unassigned) [Example 568, 2-[(3-bromophenyl)(1-methylpiperidin-4-yloxy)methyl]-5-fluoro-1H-benzimidazole], for which the Ki or IC50 activity class was less than 0.03 µM.
On to `CN1CCC(OC(c2cccc(C=CCCCO)c2)c2nc3ccccc3s2)CC1` (stereo not shown) [Example 390, 5-{3-[(benzothiazol-2-yl)(1-methylpiperidin-4-yloxy)methyl]phenyl}pent-4-en-1-ol], for which the Ki or IC50 activity class is less than 0.03 µM.
In turn, `CN1CCC(OC(c2cccc(SCCc3cnccn3)c2)c2nc3ccccc3[nH]2)CC1` (stereo not shown) [Example 232, 2-{(1-methylpiperidin-4-yloxy)[3-(2-pyrazin-2-yl-ethylsulfanyl)phenyl]methyl}-1H-benzimidazole] came in with a Ki or IC50 activity class of less than 1 µM.
With `CN1CCC(OC(c2cccc(C=CS(C)(=O)=O)c2)c2nc3ccccc3s2)CC1` (stereo not shown) [Example 212, 2-[[3-(2-methanesulfonylvinyl)phenyl](1-methylpiperidin-4-yloxy)methyl]benzothiazole], the Ki or IC50 activity class was less than 1 µM.
The compound `CN1CCC(OC(c2cccc(C#CCCCNC(=N)N)c2)c2nc3ccccc3[nH]2)CC1` (stereo not shown) [Example 358, N-(5-{3-[(1H-benzimidazol-2-yl)(1-methylpiperidin-4-yloxy)methyl]phenyl}pent-4-ynyl)guanidine] had a Ki or IC50 activity class of less than 0.03 µM.
`CC(=O)COCc1cccc(C(OC2CCN(C)CC2)c2nc3ccccc3s2)c1` (stereo not shown) [Example 270, 1-{3-[benzothiazol-2-yl(1-methylpiperidin-4-yloxy)methyl]benzyloxy}propan-2-one] yielded a Ki or IC50 activity class of less than 1 µM.
In the case of `CN1CCC(OC(c2nc3ccccc3[nH]2)c2cc(I)ccc2F)CC1` (stereo not shown) [Example 425, 2-[(2-fluoro-5-iodo-phenyl)(1-methylpiperidin-4-yloxy)methyl]-1H-benzimidazole], the Ki or IC50 activity class was less than 0.03 µM.
Compound `CN1CCC(OC(c2cccc(OCCCO)c2)c2nc3ccccc3s2)CC1` (stereo not shown) [Example 258, 3-{3-[benzothiazol-2-yl(1-methylpiperidin-4-yloxy)methyl]phenoxy}propan-1-ol] yielded a Ki or IC50 activity class of less than 0.3 µM.
For `CNCCOc1cccc(C(OC2CCN(C)CC2)c2nc3ccccc3s2)c1` (stereo not shown) [Example 279, (2-{3-[benzothiazol-2-yl(1-methylpiperidin-4-yloxy)methyl]phenoxy}ethyl)methyl-amine] the value was less than 1 µM; for `CN1CCC(OC(c2cccc(CCCCN)c2)c2nc3ccccc3s2)CC1` (stereo not shown) [Example 366, 4-{3-[benzothiazol-2-yl(1-methylpiperidin-4-yloxy)methyl]phenyl}butylamine], less than 0.03 µM; for `CCOc1cccc(C(OC2CCN(C)CC2)c2nc3ccccc3s2)c1` (stereo not shown) [Example 47, 2-[(3-ethoxyphenyl)(1-methylpiperidin-4-yloxy)methyl]benzothiazole], less than 0.03 µM.
The compound `COc1cccc(-c2cccc(C(OC3CCN(C)CC3)c3nc4ccccc4s3)c2)c1` (stereo not shown) [Example 99, 2-[(3′-methoxybiphenyl-3-yl)(1-methylpiperidin-4-yloxy)methyl]benzothiazole] came in with a Ki or IC50 activity class of less than 0.3 µM.
Consider `CN1CCC(OC(c2cccc(-c3cccc(N)c3)c2)c2nc3ccccc3s2)CC1` (stereo not shown) [Example 79, 3′-[benzothiazol-2-yl(1-methylpiperidin-4-yloxy)methyl]biphenyl-3-ylamine], for which the Ki or IC50 activity class was less than 0.3 µM.
`CN1CCC(OC(c2cccc(N3CCCC3CO)c2)c2nc3ccccc3s2)CC1` (stereo not shown) [Example 324, (1-{3-[benzothiazol-2-yl(1-methylpiperidin-4-yloxy)methyl]phenyl}pyrrolidin-2-yl)methanol] gave a Ki or IC50 activity class of less than 0.3 µM.
For `CSc1cccc(C(NC2CCN(C)CC2)c2nc3ccccc3s2)c1` (stereo not shown) [Example 111, [benzothiazol-2-yl(3-methylsulfanylphenyl)methyl](1-methylpiperidin-4-yl)amine] the value was less than 0.03 µM; for `CC(=O)NC1CCN(c2cccc(C(OC3CCN(C)CC3)c3nc4ccccc4s3)c2)C1` (stereo not shown) [Example 408, N-(1-{3-[benzothiazol-2-yl(1-methylpiperidin-4-yloxy)methyl]phenyl}pyrrolidin-3-yl)acetamide], less than 0.3 µM; for `CN1CCC(OC(c2cccc(OCC=CCN)c2)c2nc3ccccc3s2)CC1` (stereo not shown) [Example 431, 4-{3-[benzothiazol-2-yl(1-methylpiperidin-4-yloxy)methyl]phenoxy}but-2-enylamine], less than 0.03 µM.
In turn, `CN1CCC(OC(c2cccc(Oc3ccccc3)c2)c2nc3ccccc3s2)CC1` (stereo not shown) [Example 28, 2-[(1-methylpiperidin-4-yloxy)(3-phenoxy-phenyl)methyl]benzothiazole] returned a Ki or IC50 activity class of less than 0.3 µM.
Compound `CC(O)CSc1cccc(C(OC2CCN(C)CC2)c2nc3ccccc3s2)c1` (stereo not shown) [Example 255, 1-{3-[benzothiazol-2-yl(1-methylpiperidin-4-yloxy)methyl]phenylsulfanyl}propan-2-ol] came in with a Ki or IC50 activity class of less than 0.03 µM.
In turn, `CN1CCC(OC(c2cccc(C#CCCO)c2)c2nc3ccccc3s2)CC1` (stereo not shown) [Example 236, 4-{3-[benzothiazol-2-yl(1-methylpiperidin-4-yloxy)methyl]phenyl}but-3-yn-1-ol] came in with a Ki or IC50 activity class of less than 0.3 µM.
Take `CN1CCC(OC(c2cccc(C=CCNC(=N)N)c2)c2nc3ccccc3[nH]2)CC1` (stereo not shown) [Example 499]: the Ki or IC50 activity class was less than 0.03 µM.
Turning to `CN1CC(COC(c2nc3ccccc3[nH]2)c2cc(OC(F)(F)F)ccc2F)C1` (stereo not shown) [Example 516], the Ki or IC50 activity class is less than 0.3 µM.
For the compound `CN1CCC(OC(c2cccc(SCCCNC(=N)N)c2)c2nc3ccccc3[nH]2)CC1` (stereo not shown) [Example 441, N-(3-{3-[(1H-benzimidazol-2-yl)(1-methylpiperidin-4-yloxy)methyl]phenylsulfanyl}propyl)guanidine], the Ki or IC50 activity class was less than 0.03 µM.
`CN1CCC(OC(c2nc3ccccc3o2)c2cc(OC(F)(F)F)ccc2F)CC1` (stereo not shown) [Example 525, 2-[(2-fluoro-5-trifluoromethoxyphenyl)(1-methylpiperidin-4-yloxy)methyl]benzoxazole]: the Ki or IC50 activity class is less than 0.3 µM.
On to `CCCCOc1cccc(C(OC2CCN(C)CC2)c2nc3ccccc3s2)c1` (stereo not shown) [Example 92, 2-[(3-butoxyphenyl)(1-methylpiperidin-4-yloxy)methyl]benzothiazole], for which the Ki or IC50 activity class was less than 0.3 µM.
With `CN1CCC(OC(c2cccc(OCc3cccc(N)c3)c2)c2nc3ccccc3s2)CC1` (stereo not shown) [Example 228, 3-{3-[benzothiazol-2-yl(1-methylpiperidin-4-yloxy)methyl]phenoxymethyl}phenylamine], the Ki or IC50 activity class was less than 0.03 µM.
`CN1CCC(OC(c2cccc(C#CCCCN)c2)c2nc3cc(F)ccc3[nH]2)CC1` (stereo not shown) [Example 438, 5-{3-[(5-fluoro-1H-benzimidazol-2-yl)(1-methylpiperidin-4-yloxy)methyl]phenyl}pent-4-ynylamine] gave a Ki or IC50 activity class of less than 0.03 µM.
In the case of `COCCOc1cccc(C(OC2CCN(C)CC2)c2nc3ccccc3s2)c1` (stereo not shown) [Example 277, 2-[[3-(2-methoxyethoxy)phenyl](1-methylpiperidin-4-yloxy)methyl]benzothiazole] it was less than 0.3 µM.
`CC1=C(O)C(=NCCCCC#Cc2ccc(F)c(C(OC3CCN(C)CC3)c3nc4ccccc4[nH]3)c2)CC1` (stereo not shown) [Example 563, 5-(6-{3-[(1H-benzimidazol-2-yl)(1-methylpiperidin-4-yloxy)methyl]-4-fluorophenyl}hex-5-ynylimino)-2-methylcyclopent-1-enol] displayed a Ki or IC50 activity class of less than 0.3 µM.
Compound `CN1CCC(OC(c2cccc(-c3c[nH]nn3)c2)c2nc3ccccc3[nH]2)CC1` (stereo not shown) [Example 198, 2-{(1-methylpiperidin-4-yloxy)[3-(1H-[1,2,3]triazol-4-yl)phenyl]methyl}-1H-benzimidazole] yielded a Ki or IC50 activity class of less than 0.03 µM.
In the case of `CN1CCC(OC(c2nc3ccccc3[nH]2)c2cc(O)ccc2F)CC1` (stereo not shown) [Example 487], the Ki or IC50 activity class is less than 0.03 µM.
Compound `CN1CCC(OC(c2nc3ccccc3[nH]2)c2cc(C(F)(F)F)ccc2F)CC1` (stereo not shown) [Example 498] returned a Ki or IC50 activity class of less than 0.3 µM.
In turn, `Cc1cccc(C(OC2CCN(C)CC2)c2nc3ccccc3s2)c1` (stereo not shown) [Example 8, 2-[(1-methylpiperidin-4-yloxy)(m-tolyl)methyl]benzothiazole] had a Ki or IC50 activity class of less than 0.03 µM.
For `CN1CCC(OC(c2cccc(SCCN)c2)c2nc3ccccc3s2)CC1` (stereo not shown) [Example 269, 2-{3-[benzothiazol-2-yl(1-methylpiperidin-4-yloxy)methyl]phenylsulfanyl}ethylamine], the Ki or IC50 activity class is less than 0.03 µM.
Compound `CN1CCC(OC(c2cccc(I)c2)c2nc3ccccc3s2)CC1` (stereo not shown) [Example 41, 2-[(3-iodophenyl)(1-methylpiperidin-4-yloxy)methyl]benzothiazole] registered a Ki or IC50 activity class of less than 0.03 µM.
In the case of `CN1CCC(OC(c2cccc(-c3cccnc3)c2)c2nc3ccccc3[nH]2)CC1` (stereo not shown) [Example 89, 2-[(1-methylpiperidin-4-yloxy)(3-pyridin-3-ylphenyl)methyl]-1H-benzimidazole] it was less than 0.3 µM; in that of `CN1CCC(OC(c2cccc(OCCN3CCCCC3)c2)c2nc3ccccc3[nH]2)CC1` (stereo not shown) [Example 356, 2-{(1-methylpiperidin-4-yloxy)[3-(2-piperidin-1-yl-ethoxy)phenyl]methyl}-1H-benzimidazole], less than 1 µM.

(Values after US8802664B2 (Bioproject, priority 2010, dated 2014).)
